According to ChEMBL document CHEMBL1201862, “PubChem BioAssay data set” (2004):
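Protocol summary: plate cells (96-well), add compound at 5 concentrations, incubate 48 h, interpolate endpoints linearly. GI50 is the concentration that inhibits growth by half.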 The source made the active and inactive calls. Rule as the data show it: active = GI50 up to about 1.1 µM and inactive = higher.

Legend:
Assay in all cases: DTP human tumour cell line panel, 48 h
786-0 = test system: 786-0
A498 = test system: A498
CAKI-1 = test system: CAKI-1
COLO 205 = test system: COLO 205
DMS-114 = test system: DMS-114
DMS-273 = test system: DMS-273
HCT-116 = test system: HCT-116
HCT-15 = test system: HCT-15
HT-29 = test system: HT-29
LXFL 529 = test system: LXFL 529
OVCAR-8 = test system: OVCAR-8
SF-295 = test system: SF-295
SK-MEL-2 = test system: SK-MEL-2
SN12C = test system: SN12C
SNB-19 = test system: SNB-19
UO-31 = test system: UO-31
KM-20L2 = test system: KM-20L2

Structure (SMILES)	GI50 (786-0)	GI50 (A498)	GI50 (CAKI-1)	GI50 (COLO 205)	GI50 (DMS-114)	GI50 (DMS-273)	GI50 (HCT-116)	GI50 (HCT-15)	GI50 (HT-29)	GI50 (LXFL 529)	GI50 (OVCAR-8)	GI50 (SF-295)	GI50 (SK-MEL-2)	GI50 (SN12C)	GI50 (SNB-19)	GI50 (UO-31)	GI50 (KM-20L2)
CC1C(=O)CCC1C(Sc1ccccc1)(Sc1ccccc1)Sc1ccccc1 (centres undefined)	22.5 µM (inactive)	23.2 µM (inactive)	16.9 µM (inactive)	38.2 µM (inactive)	13.8 µM (inactive)	23.3 µM (inactive)	16.1 µM (inactive)	30.3 µM	30.3 µM (inactive)	17.1 µM (inactive)	24.3 µM (inactive)	36.8 µM (inactive)	34.9 µM (inactive)	21.1 µM (inactive)	26.5 µM (inactive)	1.32 µM (inactive)	
CC(=O)OC1(C#N)CC2OC1C1NC21 (centres undefined)	> 100 µM (inactive)	> 100 µM (inactive)	> 100 µM (inactive)	> 100 µM (inactive)	> 100 µM (inactive)		> 100 µM (inactive)	> 100 µM		> 100 µM (inactive)	> 100 µM (inactive)		> 100 µM (inactive)	> 100 µM (inactive)	> 100 µM (inactive)	> 100 µM (inactive)	> 100 µM (inactive)
CCc1cccc(C(C)CC)c1NC(=O)CC1C(=O)Nc2ccccc2[S+]1[O-] (centres undefined)	37.4 µM (inactive)	37.2 µM (inactive)	26.4 µM (inactive)		28.2 µM (inactive)	34 µM (inactive)	31.3 µM (inactive)	31 µM	23.1 µM (inactive)	31.4 µM (inactive)	95.7 µM (inactive)	> 100 µM (inactive)	40.5 µM (inactive)	91.2 µM (inactive)	28.5 µM (inactive)	> 100 µM (inactive)	61.2 µM (inactive)
COc1cc2c(c(OC)c1OC)-c1ccc(SC)c(=O)cc1[C@@H](NC(=O)c1ccc([N+](=O)[O-])cc1)CC2	0.00528 µM (active)	0.00632 µM (active)		< 0.0025 µM (active)	< 0.0025 µM (active)	< 0.0025 µM (active)	< 0.0025 µM (active)	0.00843 µM	0.1 µM (active)			< 0.0025 µM (active)	0.0045 µM (active)	0.00957 µM (active)		0.00579 µM (active)	< 0.0025 µM (active)
